This passage reports IC50 results from BindingDB's records for doi:10.1016/j.bmcl.2007.05.021 (Yale University, 2007).

The assay deals with Transcription factor Jun (Homo sapiens, UniProt P05412). The assay can be described thus: Inhibition of AP1-mediated gene transcription in HepG2 cells by luciferase reporter gene assay.
Sequence of Transcription factor Jun (P05412 whole entry): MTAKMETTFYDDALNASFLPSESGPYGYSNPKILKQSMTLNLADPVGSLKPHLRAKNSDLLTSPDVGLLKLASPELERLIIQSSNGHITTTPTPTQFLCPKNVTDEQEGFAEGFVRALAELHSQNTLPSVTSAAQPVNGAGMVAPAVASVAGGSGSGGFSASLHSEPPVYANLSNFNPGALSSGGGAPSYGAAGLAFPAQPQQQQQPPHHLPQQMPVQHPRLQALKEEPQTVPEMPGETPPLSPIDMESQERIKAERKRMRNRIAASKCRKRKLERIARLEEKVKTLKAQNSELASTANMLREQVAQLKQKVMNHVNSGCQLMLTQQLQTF
`COc1cc2c3c(c4cc(OC)c(OC)cc4c2cc1OC)[C@@H](O)[C@@H]1CCCN1C3` [(12aS,13R)-2,3,6,7-tetramethoxy-9,10,11,12,12a,13-hexahydro-9a-aza-cyclopenta[b]triphenylen-13-ol]: the concentration for half-maximal inhibition (IC50) is greater than 300 nM. Under `COc1cc2c3c(c4cc(OC)c(OC)cc4c2cc1O)CN1CCC[C@H]1[C@H]3O` [(12aS,13S)-2,6,7-trimethoxy-9,10,11,12,12a,13-hexahydro-9a-aza-cyclopenta[b]triphenylene-3,13-diol] stands greater than 1000 nM. Turning to `COc1cc2c(cc1OC)-c1cc(OC)c(OC)cc1C1CN3CCC[C@H]3C=C21` (stereo partly drawn) [(S)-2,3,6,7-tetramethoxy-8b,9,10,11,12,12a-hexahydro-9a-aza-cyclopenta[b]triphenylene], the 50% inhibitory concentration (IC50) was greater than 300 nM. Next, `COc1ccc2c3c(c4cc(OC)c(O)cc4c2c1)CN1CCC[C@@H]1C3` [[(R)-(+)-deoxytylophorinidine]: 68 nM; `COc1ccc2c3c(c4cc(OC)c(O)cc4c2c1)C[N+]1([O-])CCC[C@H]1[C@H]3O` (stereo partly drawn) [tylophoridicine C]: greater than 3000 nM. Compound `COc1ccc2c3c(c4cc(OC)c(OC)cc4c2c1)C[N+]1([O-])CCC[C@H]1[C@@H]3O` (stereo partly drawn) [tylophoridicine F] had a half-maximal inhibitory concentration (IC50) greater than 3000 nM. Under `COc1ccc2c3c(c4cc(OC)c(O)cc4c2c1)CN1CCC[C@H]1[C@H]3O` [tylophorinidine] stands 65 nM; under `COc1ccc2c3c(c4cc(OC)c(OC)cc4c2c1)CN1CCC[C@H]1[C@@H]3O` [tylophorinine], 110 nM.
